Measured values taken from PubChem BioAssay (NCI).
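Values below derive from 48-hour exposures of cells grown in 96-well plates, with endpoints linearly interpolated between the two concentrations bracketing the appropriate inhibition level. GI50 is the concentration that inhibits growth by half. TGI: concentration producing complete growth inhibition.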 Where a SMILES comes first, the peptide text is derived from it. The star is where a group is joined. Boc = CC(C)(C)OC(=O)*; OBn = c1ccc(CO*)cc1

Legend:
Assay in all cases: DTP human tumour cell line panel, 48 h
[1] = system: DU-145 prostate
[2] = system: HCT-15 colon
[3] = system: HOP-62 NSCLC
[4] = system: HS 578T breast
[5] = system: IGROV1 ovarian
[6] = system: NCI-H522 lung
[7] = system: SF-295 CNS
[8] = system: SR leukemia
[9] = system: SW-620 colon
[10] = system: HL-60(TB) leukemia

Row | Structure (SMILES) | TGI [1] | TGI [2] | TGI [3] | TGI [4] | TGI [5] | TGI [6] | TGI [7] | TGI [8] | TGI [9] | TGI [10] | GI50 [1] | GI50 [2] | GI50 [3] | GI50 [4] | GI50 [6] | GI50 [8] | GI50 [9] | GI50 [10] | GI50 [5] | GI50 [7]
1 | Cc1cc(-c2nc3ccccc3s2)ccc1NC(=O)[C@H](C)N | 29 µM | 37.1 µM | 28.3 µM | 74.4 µM | 23.4 µM | 75.8 µM | 29.3 µM | 13.4 µM | 29 µM |  |  |  |  |  |  |  |  |  |  | 
2 | CCCCCCCCCCCCCCCCCCNc1ccn(C2OC(COP(=O)(O)OCC3OC(n4cc(C)c(=O)[nH]c4=O)CC3N=[N+]=[N-])C(O)C2O)c(=O)n1 (configuration not stated) | > 100 µM | 36.1 µM | 45 µM | 49.8 µM | 42.5 µM | 30.7 µM | 32.6 µM | 80 µM | 58.8 µM |  |  |  |  |  |  |  |  |  |  | 
3 | O=c1cc(N2CCCC2)[nH]c(=O)n1-c1cccc(C(F)(F)F)c1 | > 100 µM | > 100 µM | > 100 µM | > 100 µM | > 100 µM | > 100 µM | > 100 µM |  | > 100 µM | > 100 µM |  |  |  |  |  |  |  |  |  | 
4 | CCCCc1ccc(Nc2ncc3[nH]cnc3n2)cc1 | 30.6 µM | 38.5 µM | 37.2 µM | 33.9 µM | 39.6 µM | 55 µM | 38 µM |  | 42.6 µM | > 100 µM |  |  |  |  |  |  |  |  |  | 
5 | O=C(c1ccccc1)c1ccc2nc(-c3c(Cl)c(Cl)c(Cl)c(Cl)c3C(=O)N/N=C/c3ccccc3)[nH]c2c1 | > 100 µM | > 100 µM | 99.7 µM | > 100 µM | > 100 µM | 55.3 µM | 88.7 µM |  | > 100 µM | 73 µM |  |  |  |  |  |  |  |  |  | 
6 | C#CC(F)(F)[C@]1(O)CC[C@H]2[C@@H]3CCC4=CC(=O)CCC4=C3[C@@H](c3ccc(C(C)=O)cc3)C[C@@]21C | 95.1 µM | 56.8 µM | 73.8 µM | > 95.2 µM |  | 0.0331 µM |  | 37 µM | > 100 µM |  | 20.1 µM | 14.3 µM | 18.7 µM | 17 µM | 0.0167 µM | 0.868 µM | 24.2 µM |  |  | 
7 | CCc1ccc2[nH]c(O)c(-c3[nH]c4ccccc4c3N=O)c2c1 | 22.5 µM | 15.1 µM | 27.2 µM | 30.5 µM | 18.6 µM | 16 µM | 20.5 µM | > 100 µM | 89.9 µM |  |  |  |  |  |  |  |  |  |  | 
8 | CCOC(=O)CNC(=O)C(C)NC(=O)C(NC(=O)CC(c1ncc[nH]1)c1ncc[nH]1)C(C)CC (configuration not stated) | > 100 µM | > 100 µM |  | > 100 µM | > 100 µM | > 100 µM | > 100 µM | > 100 µM | > 100 µM | > 100 µM |  |  |  |  |  |  |  |  |  | 
9 | COC(OC)C1OC(CO)C(n2ccc(N)nc2=O)C1O (configuration not stated) | > 100 µM | > 100 µM | > 100 µM | > 100 µM | > 100 µM | > 100 µM | > 100 µM | > 100 µM | > 100 µM |  |  |  |  |  |  |  |  |  |  | 
10 | Cc1cn(CC2=NCC(C)(C)N2)c(=O)[nH]c1=O | > 100 µM | > 100 µM | > 100 µM | > 100 µM | > 100 µM | > 100 µM | > 100 µM | > 100 µM | > 100 µM |  |  |  |  |  |  |  |  |  |  | 
11 | COC(=O)/C=C/c1cc(O)c2c(c1)[C@H](C(=O)OC)[C@@H](c1ccc(O)c(O)c1)O2 |  | > 100 µM | > 58.7 µM | 78.3 µM | > 38.8 µM | 0.838 µM | > 93.2 µM |  | > 100 µM | 0.0801 µM |  |  |  |  |  |  |  | 0.0293 µM |  | 
12 | C=C(C)C(=O)[C@@]12C(=O)[C@@H](C)CC[C@H]1[C@H](C)C[C@@H]2C=C(C)C | > 100 µM | 73.5 µM | > 100 µM |  | 64.5 µM | 27.7 µM | > 100 µM |  | 44 µM |  |  |  |  |  |  |  |  |  |  | 
13 | CCCCOP1(=O)C=C(C)C(=C(Cl)Cl)C(C)=C1 (configuration not stated) |  | 40.8 µM | 32.7 µM |  | 49 µM | 11 µM | 25.9 µM | 29.9 µM | > 40 µM | 8.26 µM |  |  |  |  |  |  |  |  |  | 
14 | CNC(=O)c1cc(NC(=O)N(CCC#N)CCN(C(=O)N[C@@H](Cc2ccccc2)C(=O)N[C@@H](CC(C)C)C(=O)NC)c2ccccc2)ccc1OC | > 100 µM | > 100 µM | > 100 µM | > 100 µM | > 73.2 µM |  | > 100 µM | 68.9 µM | > 100 µM | > 100 µM |  |  |  |  |  |  |  |  |  | 
15 | CC(NC(=O)C(NC(=O)OC(C)(C)C)C(C)C)C(=O)N1CCCC1C(=O)NCC(=O)NC(C(=O)NCC(=O)OCc1ccccc1)C(C)C (configuration not stated) (Boc-VAPGVG-OBn; configuration not given here) | > 100 µM | > 100 µM | > 100 µM |  | > 100 µM | > 100 µM | > 100 µM | > 100 µM | > 100 µM | > 100 µM |  |  |  |  |  |  |  |  |  | 
16 | CC(=O)O[C@]12CCCC1C1(O)C(O)CCCC12 (some centres not stated) |  | > 100 µM | > 100 µM |  |  | > 100 µM | > 100 µM | > 100 µM | > 100 µM | > 100 µM |  |  |  |  |  |  |  |  |  | 
17 | COc1ccc2c(c1)n([O-])c(C#N)c(N1CCN(c3ccc([N+](=O)[O-])cc3)CC1)[n+]2=O | > 84.1 µM | > 100 µM | > 71.4 µM | > 24.4 µM | > 100 µM | 9.97 µM | > 48.1 µM |  | > 100 µM | 29.1 µM |  |  |  |  |  |  |  |  |  | 
18 | CN(C)CCSC(=Nc1ccccc1)N1CCCCC1 |  | 30 µM | > 100 µM |  | 29.8 µM | 29 µM | > 100 µM | 97.3 µM | 31.6 µM | 49.5 µM |  |  |  |  |  |  |  |  |  | 
19 | COc1ccc(N=N/C(=N/NC(=O)c2ccccc2)c2ccc(N(CCC#N)CCC#N)cc2C)cc1 | > 100 µM | > 100 µM | > 100 µM | 75.2 µM | > 100 µM | 36.1 µM | > 100 µM | > 100 µM |  | > 100 µM |  |  |  |  |  |  |  |  |  | 
20 | O=[Se](=O)c1ccccc1.O=[Se](=O)c1ccccc1.[Cu] |  | 34.1 µM | 43.4 µM |  | 37.3 µM | 31.5 µM | 29.8 µM |  | 33.8 µM | 15.4 µM |  | 16.4 µM | 26 µM |  | 17.3 µM |  | 17.5 µM | 6.51 µM | 18.5 µM | 16 µM
21 | Cc1cccc(NC(=O)C(=O)C(C(=O)c2ccccc2F)C2OC(=O)c3ccccc32)c1Cl (configuration not stated) |  | 73.3 µM | > 100 µM |  | > 100 µM | 79.9 µM | > 100 µM | > 100 µM | > 100 µM | 56.2 µM |  |  |  |  |  |  |  |  |  | 
